From US9630949B2, “Oxoazetidine derivatives, process for the preparation thereof and use thereof in human medicine and in cosmetics” (GALDERMA RESEARCH & DEVELOPMENT, priority 2008, dated 2017) come the findings set out here.

One assay has as its target hMC4R (Homo sapiens (Human), UniProt P32245). As to the kind of experiment: Transactivation test: melanocortin receptors (pCRE-Luc luciferase reporter), hMC4R. The following applies: HEK293 transfected with pCRE-Luc and hMC4R; products tested alone (agonist), 6 h incubation; % activity vs NDP-MSH 10 nM; IA: inactive. Type of assay: cell-based. The method, then: (§1) Transactivation Test: Melanocortin Receptors
(§2) HEK293 lines are transfected with the pCRE-Luc and hMC1R, hMC3R, hMC4R or hMC5R vectors. The cells are cultured at 37° C., 5% CO2, in DMEM medium supplemented with 10% of foetal calf serum.
(§3) In the presence of an activator (agonist), the melanocortin receptor will activate the cAMP pathway which, via the CRE-Luc vector, will result in the synthesis of luciferase. After the addition of a lysis buffer containing a luminescent substrate for luciferase, it will be possible to measure the luminescence proportional to the degree of activation or of inhibition of the receptor.
(§4) The products are solubilized at 10 mM in DMSO. They are tested in the form of dose-response at a final DMSO concentration of 0.1%. The range comprising 10 points and one zero begins at 10 μM with 4-fold dilutions. For testing agonists, the products are tested alone. For determining the behaviour of antagonists, the products of interest are tested in the presence of 1 nM NDP-MSH (reference agonist). The cells are seeded at a rate of 5000 cells per well (384 well plate) in serum-free DMEM medium, and incubated overnight at 37° C., 5% CO2.
(§5) The products and the reference ligand (NDP-MSH) are added the following day, and the plates are again incubated for 6 h at 37° C., 5% CO2. After the addition of lysis buffer containing luciferin, the plates are read on a Top-Count instrument. The results are standardized as % activity using the 100% (cells+NDP-MSH at 10 nM) and 0% (cells alone) controls. An EC50 is calculated for each product using the XLFit software. The results are given in nM.

A further assay concerns the target hMC1R (Homo sapiens (Human), UniProt Q01726). The assay can be described thus: Transactivation test: melanocortin receptors (pCRE-Luc luciferase reporter), hMC1R. In kind it is cell-based. As to conditions: HEK293 transfected with pCRE-Luc and hMC1R; products tested alone (agonist), 6 h incubation; % activity vs NDP-MSH 10 nM; IA: inactive. The method, then: as §1, §2, §3, §4, §5
(A reporter such as luciferase makes a cellular process visible.)

hMC1R, sequence (Q01726 whole entry): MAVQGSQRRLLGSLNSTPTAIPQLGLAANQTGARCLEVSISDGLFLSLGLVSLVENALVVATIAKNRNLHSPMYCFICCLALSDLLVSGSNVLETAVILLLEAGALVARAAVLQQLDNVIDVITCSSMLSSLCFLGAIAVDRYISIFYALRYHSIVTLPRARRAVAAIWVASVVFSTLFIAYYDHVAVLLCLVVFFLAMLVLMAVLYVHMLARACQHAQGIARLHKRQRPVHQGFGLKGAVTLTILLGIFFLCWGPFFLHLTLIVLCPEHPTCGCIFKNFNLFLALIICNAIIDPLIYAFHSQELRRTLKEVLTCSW
hMC4R, sequence (P32245 whole entry): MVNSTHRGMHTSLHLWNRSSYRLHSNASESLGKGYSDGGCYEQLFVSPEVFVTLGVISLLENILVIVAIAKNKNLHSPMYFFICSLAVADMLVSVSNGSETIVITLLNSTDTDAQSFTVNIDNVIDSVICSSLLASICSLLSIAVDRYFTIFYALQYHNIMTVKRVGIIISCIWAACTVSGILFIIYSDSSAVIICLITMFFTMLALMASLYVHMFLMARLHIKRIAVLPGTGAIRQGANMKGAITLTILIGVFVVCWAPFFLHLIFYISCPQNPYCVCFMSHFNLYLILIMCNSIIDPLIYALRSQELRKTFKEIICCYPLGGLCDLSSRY

What is called EC50 is the concentration needed to bring the measured effect to its halfway point. A low value points to higher potency in that assay. Turning to `CCCCCC1(c2ccccc2)CN(C(=O)[C@@H](Cc2ccc(Cl)cc2)NC(=O)CCc2c[nH]cn2)C1` [Compound 45, N-[(R)-1-(4-chlorobenzyl)-2-oxo-2-(3-pentyl-3-phenylazetidin-1-yl)ethyl]-3-(1H-imidazol-4-yl)propionamide], the EC50 at hMC4R and on hMC1R was 2000 nM in each case.

For `CCCCCC1(c2ccccc2)CN(C(=O)[C@@H](Cc2ccc(F)cc2)NC(=O)CCc2c[nH]cn2)C1` [Compound 46, N-[(R)-1-(4-fluorobenzyl)-2-oxo-2-(3-pentyl-3-phenylazetidin-1-yl)ethyl]-3-(1H-imidazol-4-yl)propionamide], the EC50 on hMC4R was 4000 nM; on hMC1R it was 1000 nM.

As to `CCCCCC1(c2ccccc2)CN(C(=O)[C@@H](Cc2ccccc2)NC(=O)CCc2c[nH]cn2)C1` [Compound 47, N-[(R)-1-benzyl-2-oxo-2-(3-pentyl-3-phenylazetidin-1-yl)ethyl]-3-(1H-imidazol-4-yl)propionamide], the EC50 on hMC4R worked out at 4000 nM; on hMC1R, 500 nM.

Regarding `CCCCOC1(c2ccccc2C)CN(C(=O)[C@@H](Cc2ccc(OC)cc2)NC(=O)C=Cc2c[nH]cn2)C1` [Compound 48, N-[(R)-2-(3-butoxy-3-o-tolylazetidin-1-yl)-1-(4-methoxybenzyl)-2-oxoethyl]-3-(1H-imidazol-4-yl)acrylamide], the EC50 at hMC4R turned out to be 500 nM; on hMC1R, 4000 nM.

On to `CCCCCC1(c2ccc(F)cc2F)CN(C(=O)[C@@H](Cc2ccc(OC)cc2)NC(=O)CCc2c[nH]cn2)C1` [Compound 49, N-[(R)-2-[3-(2,4-difluorophenyl)-3-pentylazetidin-1-yl]-1-(4-methoxybenzyl)-2-oxoethyl]-3-(1H-imidazol-4-yl)propionamide], for which the results for the concentration giving a half-maximal response (EC50) on hMC4R and on hMC1R were 2000 nM and 15 nM, respectively.

As to `CCCCCC1(c2ccccc2)CN(C(=O)[C@@H](Cc2cccc(C(F)(F)F)c2)NC(=O)CCc2c[nH]cn2)C1` [Compound 50, N-[(R)-2-oxo-2-(3-pentyl-3-phenylazetidin-1-yl)-1-(3-trifluoromethylbenzyl)ethyl]-3-(1H-imidazol-4-yl)propionamide], the results for the EC50 at hMC4R and at hMC1R were 500 nM and 1000 nM, respectively.

Regarding `CCCCCC1(c2ccccc2)CN(C(=O)[C@@H](Cc2ccc(Cl)c(Cl)c2)NC(=O)CCc2c[nH]cn2)C1` [Compound 52, N-[(R)-1-(3,4-dichlorobenzyl)-2-oxo-2-(3-pentyl-3-phenylazetidin-1-yl)ethyl]-3-(1H-imidazol-4-yl)propionamide], the values for the concentration for a half-maximal effect (EC50) on hMC4R and on hMC1R were 250 nM and 2000 nM, respectively.

Regarding `CCCCCC1(c2ccccc2)CN(C(=O)[C@@H](Cc2ccc(F)c(F)c2)NC(=O)CCc2c[nH]cn2)C1` [Compound 53, N-[(R)-1-(3,4-difluorobenzyl)-2-oxo-2-(3-pentyl-3-phenylazetidin-1-yl)ethyl]-3-(1H-imidazol-4-yl)propionamide], the EC50 came to 4000 nM on hMC4R and 1000 nM on hMC1R.

As to `CCCCCC1(c2cccc(F)c2)CN(C(=O)[C@@H](Cc2ccc(OC)cc2)NC(=O)CCc2c[nH]cn2)C1` [Compound 55, N-[(R)-2-[3-(3-fluorophenyl)-3-pentylazetidin-1-yl]-1-(4-methoxybenzyl)-2-oxoethyl]-3-(1H-imidazol-4-yl)propionamide], the half-maximal effective concentration (EC50) on hMC4R stood at 1000 nM; at hMC1R it was 120 nM.

Turning to `CCCCCC1(c2ccccc2)CN(C(=O)[C@@H](Cc2cccc(F)c2)NC(=O)CCc2c[nH]cn2)C1` [Compound 56, N-[(R)-1-(3-fluorobenzyl)-2-oxo-2-(3-pentyl-3-phenylazetidin-1-yl)ethyl]-3-(1H-imidazol-4-yl)propionamide], the EC50 on hMC4R was determined as 8000 nM; on hMC1R it was 4000 nM.

For `CCCCCC1(c2ccccc2)CN(C(=O)[C@@H](Cc2ccccc2F)NC(=O)CCc2c[nH]cn2)C1` [Compound 57, N-[(R)-1-(2-fluorobenzyl)-2-oxo-2-(3-pentyl-3-phenylazetidin-1-yl)ethyl]-3-(1H-imidazol-4-yl)propionamide], the EC50 at hMC4R was determined as 4000 nM; on hMC1R, 1000 nM.

As for `CCCCCC1(c2ccccc2)CN(C(=O)[C@@H](Cc2ccc(Cl)cc2Cl)NC(=O)CCc2c[nH]cn2)C1` [Compound 58, N-[(R)-1-(2,4-dichlorobenzyl)-2-oxo-2-(3-pentyl-3-phenylazetidin-1-yl)ethyl]-3-(1H-imidazol-4-yl)propionamide], the EC50 at hMC4R amounted to 500 nM; at hMC1R, 2000 nM.

Turning to `CCCCCC1(c2cc(F)ccc2F)CN(C(=O)[C@@H](Cc2ccc(OC)cc2)NC(=O)CCc2c[nH]cn2)C1` [Compound 60, N-[(R)-2-[3-(2,5-difluorophenyl)-3-pentylazetidin-1-yl]-1-(4-methoxybenzyl)-2-oxoethyl]-3-(1H-imidazol-4-yl)propionamide], the EC50 came to 100 nM at hMC4R and 120 nM at hMC1R.

As for `CCCCCC1(c2c(F)cccc2F)CN(C(=O)[C@@H](Cc2ccc(OC)cc2)NC(=O)CCc2c[nH]cn2)C1` [Compound 61, N-[(R)-2-[3-(2,6-difluorophenyl)-3-pentylazetidin-1-yl]-1-(4-methoxybenzyl)-2-oxoethyl]-3-(1H-imidazol-4-yl)propionamide], the EC50 was 100 nM on hMC4R and 120 nM on hMC1R.

Regarding `CCCCOC1(c2ccccc2C)CN(C(=O)C(Cc2ccc(OC)cc2)NC(=O)CC(CC)c2c[nH]cn2)C1` (stereo not drawn) [Compound 63, N-[2-(3-butoxy-3-o-tolylazetidin-1-yl)-1-(4-methoxybenzyl)-2-oxoethyl]-3-(1H-imidazol-4-yl)pentyramide], the EC50 on hMC4R and on hMC1R was 500 nM each time.

Take `CCCCCC1(c2ccccc2)CN(C(=O)[C@@H](Cc2ccc(OC)cc2)NC(=O)CCc2cncn2C)C1` [Compound 64, N-[(R)-1-(4-methoxybenzyl)-2-oxo-2-(3-pentyl-3-phenylazetidin-1-yl)ethyl]-3-(3-methyl-3H-imidazol-4-yl)propionamide]: the EC50 stood at 500 nM at hMC4R and 2000 nM at hMC1R.

On to `CCCCCC1(C2CCCCC2)CN(C(=O)[C@@H](Cc2ccc(OC)cc2)NC(=O)CCc2c[nH]cn2)C1` [Compound 66, N-[(R)-2-(3-cyclohexyl-3-pentylazetidin-1-yl)-1-(4-methoxybenzyl)-2-oxoethyl]-3-(1H-imidazol-4-yl)propionamide], for which the EC50 on hMC4R and at hMC1R was 250 nM throughout.

Turning to `CCCCOC1(c2ccccc2C)CN(C(=O)[C@@H](Cc2ccc(OC)cc2)NC(=O)CCc2cncn2C)C1` [Compound 67, N-[(R)-2-(3-butoxy-3-o-tolylazetidin-1-yl)-1-(4-methoxybenzyl)-2-oxoethyl]-3-(3-methyl-3H-imidazol-4-yl)propionamide], the concentration for a half-maximal effect (EC50) on hMC4R and at hMC1R was 500 nM each time.

Consider `CCCCOC1(c2ccccc2F)CN(C(=O)[C@@H](Cc2ccc(OC)cc2)NC(=O)CCc2c[nH]cn2)C1` [Compound 68, N-[(R)-2-[3-Butoxy-3-(2-fluorophenyl)azetidin-1-yl]-1-(4-methoxybenzyl)-2-oxoethyl]-3-(1H-imidazol-4-yl)propionamide], for which the EC50 on hMC4R came to 2000 nM; at hMC1R, 60 nM.

As to `CCCCOC1(c2ccccc2C)CN(C(=O)[C@@H](Cc2ccc(OC)cc2)NC(=O)CCc2cn(C)cn2)C1` [Compound 69, N-[(R)-2-(3-Butoxy-3-o-tolylazetidin-1-yl)-1-(4-methoxybenzyl)-2-oxoethyl]-3-(1-methyl-1H-imidazol-4-yl)propionamide], the figures for the EC50 at hMC4R and at hMC1R were 8000 nM and 1000 nM, respectively.

Consider `CCCCOC1(c2ccccc2C)CN(C(=O)[C@@H](Cc2ccc(OC)cc2)NC(=O)[C@@H](O)Cc2c[nH]cn2)C1` [Compound 71, (S)-N-[(R)-2-(3-Butoxy-3-o-tolylazetidin-1-yl)-1-(4-methoxybenzyl)-2-oxoethyl]-2-hydroxy-3-(1H-imidazol-4-yl)propionamide], for which the EC50 on hMC4R is 4000 nM; on hMC1R it was 60 nM.

`CCCCOC1(c2ccccc2C)CN(C(=O)C(NC(=O)CCc2c[nH]cn2)C(O)c2ccc(OC)cc2)C1` (stereo not drawn) [Compound 73, N-[1-(3-Butoxy-3-o-tolylazetidine-1-carbonyl)-2-hydroxy-2-(4-methoxyphenyl)ethyl]-3-(1H-imidazol-4-yl)propionamide]: the figures for the EC50 at hMC4R and at hMC1R were 8000 nM and 500 nM, respectively.

With `CCCCOC1(c2ccccc2C)CN(C(=O)[C@@H](Cc2ccc(OC)cc2)NC(=O)CC(O)c2c[nH]cn2)C1` (stereo partly drawn) [Compound 74, N-[(R)-2-(3-Butoxy-3-o-tolylazetidin-1-yl)-1-(4-methoxybenzyl)-2-oxoethyl]-3-hydroxy-3-(1H-imidazol-4-yl)propionamide], the EC50 at hMC4R was 8000 nM; on hMC1R, 250 nM.

For `CC#CCC1(c2ccccc2C)CN(C(=O)[C@@H](Cc2ccc(OC)cc2)NC(=O)CCc2c[nH]cn2)C1` [Compound 75, N-[(R)-2-(3-But-2-ynyl-3-o-tolylazetidin-1-yl)-1-(4-methoxybenzyl)-2-oxoethyl]-3-(1H-imidazol-4-yl)propionamide], the EC50 stood at 4000 nM at hMC4R and 60 nM on hMC1R.
